Laboratory results published in patent US10758607B2, “Respiratory syncytial virus having cleavage-resistant G protein and related materials and methods” (The Research Institute at Nationwide Children's Hospital, priority 2015, dated 2020).
“Also recorded” adds a separate entry of the source. Where a SMILES comes first, the peptide text is derived from it. The star is where a group is joined. Cbz = O=C(OCc1ccccc1)*; CHN2 = [N-]=[N+]=C*; tBu = CC(C)(C)*

Legend:
[1] = test system: G protein from Vero cell virions; assay: Virion-associated G protein of rgRSV grown in Vero cells with cathepsin L inhibitor (immunoblot); type: cell-based; settings: for virion-associated G protein cleavage: rgRSV grown in Vero cells, 0.5 μM inhibitor at 7 hpi, harvested 72 hpi
Procedure: To verify that cathepsin L is sufficient to cleave the G protein, rgRSV was grown in Vero cells in the presence of cathepsin L inhibitor or vehicle. Viruses were harvested and pelleted through a 35% sucrose cushion to separate them from cathepsin L inhibitor. Viruses were resuspended in buffer with pH5.5 and treated with cathepsin L or vehicle. […] Vero cells were inoculated with rgRSV or mock inoculated for 2 h, at which time the inoculum was replaced with fresh medium. Vero cells were treated with medium containing 0.5 μM cathepsin L inhibitor III at 7 hpi. 72 hpi the medium was harvested and virus was pelleted through a 35% sucrose cushion. The pelleted Vero-derived (VeD) virus was resuspended in buffer (pH5.5) containing 50 ng/d cathepsin L or vehicle.
(§1) At 72 hpi the medium was collected and virus pelleted through a 35% sucrose cushion to partially purify and concentrate it. The virus pellet was resuspended and half was further purified by linear sucrose density gradient. The G protein from these purified virions was analyzed by immunoblot. The G protein from HeLa cell virions migrated at 90 kDa and was not affected by the inhibitor (FIG. 5A). […] FIG. 5A was generated by inoculating HeLa or Vero cells for 2 h and treating them with cathepsin L inhibitor or DMSO beginning at 8 hpi.
The effect of protease inhibitors on the infectivity of RSV produced by Vero and HeLa cells was tested by inoculating cells and 2 hpi media was changed. At 7 hpi medium containing […] cathepsin L inhibitor III (Calbiochem, San Diego, Calif.) or an equal volume of the vehicle, DMSO was added to the cells. […] Fractions containing virus were separated by SDS-PAGE and G protein detected by immunoblot using a mAb, L9 (Edward Walsh, University of Rochester).

[2] = test system: HAE cultures; assay: Infection of HAE cultures by rgRSV produced in the presence of cathepsin L inhibitor; type: cell-based, human
Procedure: as §1
The remaining virus that had been partially purified through the 35% sucrose cushion was titrated on HeLa cells. Equivalent amounts of infectious virus, determined on HeLa cells, were used to inoculate HAE cultures. […] For FIG. 5B, equivalent amount of infectious virus, determined by titration on HeLa cells, was used to inoculate HAE cultures. 48 hpi green cells were counted. *p<0.0001 (unpaired, 2-tailed t-test).
Primary, well-differentiated human airway epithelial (HAE) cultures were generated from human airway tissue (Fulcher et al., Methods Mol Med (2005) 107:183-206). For infection experiments they were grown on collagen coated Trans-well inserts (Corning Incorporated). […]
The effect of protease inhibitors on the infectivity of RSV produced by Vero and HeLa cells was tested by inoculating cells and 2 hpi media was changed. […] Fractions containing virus were separated by SDS-PAGE and G protein detected by immunoblot using a mAb, L9 (Edward Walsh, University of Rochester).
The apical surface of well-differentiated HAE cultures in Trans-wells was washed with DPBS for 2 h and the basal medium changed before equivalent pfu (titrated in HeLa cells), between 2,000 and 10,000 pfu, depending on the HAE culture source, were diluted in HAE medium and added to the apical chamber of the Trans-well. […] Fluorescent (green) cells were visualized with an EVOS fl inverted fluorescence microscope (Life Technologies) and counted in HeLa cultures at 24 hpi and on HAE cultures at 48 hpi. Three or more experiments were pooled and analyzed together.

[3] = test system: G protein from HeLa cell virions; assay: Virion-associated G protein of rgRSV grown in HeLa cells with cathepsin L inhibitor (immunoblot); type: cell-based; settings: inhibitor beginning at 8 hpi; virus collected 72 hpi; G migrated at 90 kDa
Procedure: as §1
The effect of protease inhibitors on the infectivity of RSV produced by Vero and HeLa cells was tested by inoculating cells and 2 hpi media was changed. At 7 hpi medium containing […] cathepsin L inhibitor III (Calbiochem, San Diego, Calif.) or an equal volume of the vehicle, DMSO was added to the cells. 72 hpi virus was harvested as described above, but instead of aliquoting and snap freezing, 15 ml of virus-containing medium was layered on top of 15 ml of 35% sucrose cushion in 1× Hanks Balanced Salt Solution, with calcium and magnesium, and centrifuged overnight at 4° C. and 26,000×g in an F14-14×50cy rotor for Sorvall Lynx 6000 (Thermo Fisher) to remove the drug and partially purify the virus. […] Fractions containing virus were separated by SDS-PAGE and G protein detected by immunoblot using a mAb, L9 (Edward Walsh, University of Rochester).

[4] = test system: RSV G protein cleavage in Vero cells; assay: Cell-surface RSV G protein cleavage in rgRSV-infected cells treated with protease inhibitors (biotinylation, immunoblot with mAb L9); type: cell-based; settings: RSV-infected HeLa and Vero cells; 0.1 to 100 μM at 6 hpi; 24 hpi
Procedure: To elucidate the class of protease responsible for G protein cleavage in Vero cells, cells were treated with increasing concentrations of protease inhibitors after inoculating with recombinant green fluorescent protein expressing RSV (rgRSV). Cells were incubated with rgRSV for 2 h with tipping at 37° C. before replacing inoculum with fresh cell culture medium. Drugs were added at different times post infection. In each case, uninfected, no drug, and vehicle (at the highest concentration used) were included in all experiments as controls. In all experiments at 24 hpi, cell surface proteins were biotinylated, cells lysed and equivalent amounts of protein from each sample were mixed with streptavidin beads.
Aprotinin, a serine protease inhibitor, leupeptin, a serine/cysteine protease inhibitor; or E-64, a cysteine protease inhibitor were added to the cell culture media (3.125 to 50 μg/ml) from 2-24 hpi. The most likely proteins to be incorporated into the virions are cell surface proteins, so the cell surfaced was biotinylated, proteins isolated from lysed cells with streptavidin beads, and immunobloted with L9, a mAb to the G protein, as a probe (FIG. 1A). In the untreated and vehicle treated samples most of the cell surface G protein was cleaved (˜55 kDa), leaving only a small portion of full length (˜90 kDa) G protein. […] Since both leupeptin and E64 block the activity of cysteine proteases, the protease responsible for cleavage of the G protein in Vero cells is a cysteine protease.
To narrow the field of cysteine proteases, cells were treated at 6 hpi with a more specific cysteine protease inhibitor, ALLM (0.1 to 100 μM).
RSV-infected HeLa and Vero cells were treated with a cathepsin B inhibitor, CA-074 (0.1 to 100 μM), or a cathepsin L inhibitor, cathepsin L inhibitor III (0.1 to 100 μM) 6 hpi.
Cathepsin L is a protease present primarily in the interior of the lysosome and is optimally active at acidic pH. Vero cells expressing the G protein were treated with chloroquine to raise the pH of the lysosome. […] To generate FIG. 4C, cells were inoculated with RSV or mock inoculated. 6 hpi the cells were treated with increasing concentrations of chloroquine. 24 hpi cells were biotinylated and G protein assayed
HeLa and Vero cells were rgRSV (MOI: 1) or mock inoculated. 2 hpi the inoculum was replaced with fresh complete medium, and 4 hpi cells the medium was changed again to complete medium with 2-fold dilutions of these protease inhibitors (Sigma-Aldrich, St. Louis, Mo.), dissolved in water: Aprotinin (3.125 to 50 μg/ml); Leupeptin (6.25 to 100 μg/ml); E-64 (6.25 to 100 μg/ml); or equal volumes of water in medium. In other experiments, cells were treated at 6 hpi with: 10-fold dilutions (0.1 to 100 μM) of: Cathepsin inhibitor I (Calbiochem); ALLM (Santa Cruz, Dallas, Tex.); Chloroquine diphosphate salt (Sigma Aldrich) or equivalent volumes of vehicle (water); CA-074 (Calbiochem); Cathepsin L inhibitor III (Calbiochem); or an equal volume of vehicle (DMSO) in medium.
At 24 hpi cells were biotinylated with Ez-link Sulfo-NHS-LC-Biotin (Thermo Fisher). Cells were lysed with lysis buffer containing 150 mM NaCl, 1% Triton X-100, 50 mM Tris, 0.1% SDS, and 1× Halt protease cocktail inhibitor (Thermo Fisher). Proteins were quantified using BCA protein assay kit (Pierce, Waltham, Mass.), and equal amounts of protein were added to high capacity streptavidin agarose beads (Thermo Fisher). The mixtures were rotated for 1 h at 4° C., the beads were pelleted and washed with lysis buffer (without protease cocktail inhibitor), NuPage LDS sample buffer was added, and boiled for 5 min, separated by NuPAGE Novex 4-12% bis-tris protein gels and transferred to nitrocellulose in an iBlot transfer stack, using the iBlot transferring system (Life Technologies) for immunoblot analysis. […]

CC(C)(C)Oc1ccc(C[C@H](NC(=O)[C@H](Cc2ccccc2)NC(=O)OCc2ccccc2)C(=O)C=[N+]=[N-])cc1 [cathepsin L inhibitor III] (Cbz-Phe-Tyr(tBu)-CHN2)
migration of G protein from Vero cell virions ([1]; inhibitor beginning at 8 hpi, virus collected 72 hpi, without inhibitor primarily 55 kDa): converted to 90 kDa | virion-associated G protein cleavage [1]: cleavage is prevented | virion-associated G protein cleavage ([1]; listed as cathepsin L inhibitor): cleavage prevention | ability of Vero-derived virus to infect HAE cells ([2]; inhibitor present during viral production): increasing the ability of Vero-derived virus to infect HAE cells | effect on ability of HeLa grown virus to infect HAE cultures ([2]; inhibitor present during virus production in HeLa, green cells counted 48 hpi): little, if any, effect | increase in ability of Vero-grown virus to infect HAE cells ([2]; inhibitor present during virus production in Vero, green cells counted 48 hpi, vs DMSO): 7 fold | migration of G protein from HeLa cell virions [3]: not affected | G protein cleavage (cell surface G protein) [4]: prevention of cleavage; also recorded: almost completely prevented G protein cleavage
